Data on two compounds can be found in PMC11375794, “Discovery of new Hsp90–Cdc37 protein–protein interaction inhibitors: in silico screening and optimization of anticancer activity” (RSC Advances, 2024).

For assay [1], the system named is Hsp90 client protein levels (Cdk4, Akt, c-Raf, ERα, IGF1R) and Hsp70, Hsp90 in MCF-7 cells. Put plainly: Western blot of Hsp90 client proteins and heat shock proteins. The assay is classed as cell-based. The settings on record: for ERα level: MCF-7, 20 μM; for heat shock response (Hsp70 and Hsp90 levels): MCF-7, 24 hours. On the procedure: MCF-7 cells were treated with compounds 8c (20 μM and 50 μM), 13g (20 μM and 50 μM) and DDO-5936 (20 μM) or 0.5% DMSO as a negative control. The cells were incubated with the compounds or negative control for 24 hours. After incubation, the cells were rinsed with PBS (Gibco, Thermo Fisher Scientific, Waltham, MA, USA) and lysed using RIPA buffer containing 50 mM Tris–HCl pH 7.4, 150 mM NaCl, 1% NP-40, 0.5% sodium deoxycholate, and 1 mM EDTA. The RIPA buffer was further supplemented with Halt™ Protease Inhibitor Cocktail and Halt™ Phosphatase Inhibitor Cocktail (both from Thermo Fisher Scientific, Waltham, MA, USA) at a 1 : 100 dilution. The lysates were then frozen for at least 24 hours. Upon thawing, the lysates were sonicated and centrifuged at 15 000 rpm for 20 minutes at 4 °C. Only the supernatants were collected, and protein concentration was measured using the DC protein assay (Bio-Rad, Hercules, California, USA). Proteins (20 μg) were separated by SDS-PAGE on a 10% acrylamide/bisacrylamide gel, running at 80 V for 15 minutes followed by 130 V for 60 minutes. The separated proteins were then transferred onto a nitrocellulose membrane using the iBlot 2 Dry Blotting System (Thermo Fisher Scientific, Waltham, MA, USA). The membranes were blocked with 5% BSA for 1 hour at room temperature to prevent nonspecific binding. Primary antibodies were then added, and the membranes were incubated overnight at 4 °C. The primary antibodies (Cell Signaling, Danvers, MA, USA) used included anti-β-ActinMouse mAb (1 : 5000), anti-Hsp90 Rabbit mAb (1 : 1000), anti-Hsp70 Mouse mAb (1 : 1000), anti-IGF1R Rabbit (1 : 1000), anti-CDK4 Rabbit (1 : 1000), anti-ERα Mouse mAb (1 : 1000), anti-Akt Rabbit mAb (1 : 1000), and anti-c-Raf Rabbit mAb (1 : 1000). Secondary antibodies included anti-rabbit IgG, HRP-linked antibody (1 : 10 000), and anti-mouse IgG, HRP-linked antibody (1 : 10 000), which were incubated with the membranes for 1 hour at room temperature. Following washes, SuperSignal™ West Femto Maximum Sensitivity Substrate (Thermo Fisher Scientific, Waltham, MA, USA) was applied. Visualization of the blots was performed using the UVITEC Cambridge Imaging System (UVITEC, Cambridge, UK), and densitometric analysis of the western blot bands was conducted using NineAlliance software. Relative protein densities were calculated in relation to β-actin, used as a loading control.
In general terms: In western blotting, separated proteins are transferred to a membrane and probed.

For assay [2], the target named is T1, full-length Hsp90β (Homo sapiens, UniProt P08238).
T1 construct: For the protein expression of full-length Hsp90β, we received plasmids as a kind gift; made in house; host or cells: Escherichia coli strain Rosetta
T1 sequence (P08238 whole entry): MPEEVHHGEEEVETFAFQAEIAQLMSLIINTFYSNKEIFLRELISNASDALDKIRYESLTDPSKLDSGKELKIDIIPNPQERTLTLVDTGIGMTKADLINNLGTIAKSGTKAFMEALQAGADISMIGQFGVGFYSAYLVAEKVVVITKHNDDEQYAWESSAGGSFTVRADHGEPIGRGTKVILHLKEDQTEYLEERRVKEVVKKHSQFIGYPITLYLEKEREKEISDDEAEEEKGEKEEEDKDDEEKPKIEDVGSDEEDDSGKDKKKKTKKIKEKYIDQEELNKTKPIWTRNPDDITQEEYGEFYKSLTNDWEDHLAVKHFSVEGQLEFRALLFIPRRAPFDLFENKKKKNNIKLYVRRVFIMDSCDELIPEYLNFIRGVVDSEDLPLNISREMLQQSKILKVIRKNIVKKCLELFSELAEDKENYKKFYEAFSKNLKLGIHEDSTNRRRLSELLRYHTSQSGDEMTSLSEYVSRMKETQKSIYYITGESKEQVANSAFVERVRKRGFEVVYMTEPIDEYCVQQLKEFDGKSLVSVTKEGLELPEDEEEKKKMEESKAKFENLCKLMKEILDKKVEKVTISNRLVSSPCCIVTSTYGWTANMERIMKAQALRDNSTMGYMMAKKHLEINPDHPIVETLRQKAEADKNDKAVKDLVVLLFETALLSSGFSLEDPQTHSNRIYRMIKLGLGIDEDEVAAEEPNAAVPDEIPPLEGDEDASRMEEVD
Put plainly: Microscale thermophoresis (MST) binding to Hsp90β. Particulars: full-length Hsp90β, absence of Cdc37. The procedure:
For the protein expression of full-length Hsp90β, we received plasmids as a kind gift from Dr Asta Zubriené at the Institute of Biotechnology, Vilnius University, Lithuania. Hsp90β, tagged with N-terminal 6×His-tag, was expressed in Escherichia coli strain Rosetta. The cells were cultured in LB media supplemented with kanamycin (50 μg mL^−1) and chloramphenicol (34 μg mL^−1) at 37 °C, and protein expression was initiated with 0.5 mM isopropyl β-D-1-thiogalactopyranoside (IPTG) when the OD600 reached 0.8. Following induction, the cells were incubated for 16 hours at 18 °C before being harvested by centrifugation. The cells were resuspended in a lysis buffer containing 40 mM potassium phosphate pH 8.0, 400 mM KCl, 10 mM imidazole, and protease inhibitors (Sigma), and then lysed by sonication. After centrifugation, the proteins were initially purified using a Ni^2+-affinity HisTrap column (GE Healthcare). Impurities were washed away with lysis buffer containing 20–40 mM imidazole, and Hsp90β was subsequently eluted with lysis buffer containing 300 mM imidazole. The purification process continued with size exclusion chromatography (SEC) using a Superdex-200 (16/600) column (GE Healthcare) and a running buffer of 50 mM Tris pH 7.5 at room temperature, 300 mM KCl. The purity of the fractions was confirmed by SDS-PAGE, and they were then concentrated. For the NMR experiments, Hsp90β was dialyzed against NMR buffer (50 mM potassium phosphate pD 7.5, 100 mM KCl, 2 mM DTT (98%, D10) in D2O) and subsequently frozen in liquid nitrogen.
The full-length Hsp90β was labeled using the Monolith His-Tag Labeling Kit RED-tris-NTA following the manufacturer's instructions (NanoTemper Technologies GmbH, Munich, Germany). The proteins were first diluted to a concentration of 8 nM in assay buffer (50 mM Tris–HCl, pH 7.4, containing 150 mM NaCl, 5% ethanol, and 10 mM MgCl2). To determine the Kd values, the proteins were mixed with the test compounds in a 1 : 1 ratio as stated in the manufacturers protocol. The final concentration of Hsp90β was 4 nM, with compounds added in the following ranges: 1000 μM to 5.86 μM for 8c; 312.5 μM to 0.15 μM for 13g and 125 μM to 3.91 μM for 1. Two independent Kd determinations were performed for compounds 8c and 13g. […] Next, Cdc37 (AR09008PUN, OriGene Technologies, Inc., Rockville, MD, USA) was acquired for the purpose of PPI inhibition evaluation between full-length Hsp90β and Cdc37. […] In all experiments the compounds were incubated with the proteins for 15 minutes in the dark at room temperature. The mixtures were then loaded into Monolith NT.115 Premium Capillaries (NanoTemper Technologies GmbH, Munich, Germany). Thermophoresis was induced at 1475 ± 15 nm and measured using a Monolith NT.115 pico instrument (NanoTemper Technologies GmbH, Munich, Germany). Measurements were conducted at ambient temperature (24–25 °C), with excitation power set to 20% and MST power set to 40%, and a laser on time of 5 seconds. To calculate the Kd values, the average fluorescence responses for each concentration were plotted against the logarithm of compound concentrate on using GraphPad Prism software (GraphPad Software, Inc., La Jolla, CA).
A general note: MST reads how a fluorescent partner responds to local heating, with and without ligand.

Broadly, the Kd is the equilibrium constant for the complex coming apart. Lower therefore signals higher affinity. Turning to `CN(CCOc1ccccc1)C(=O)c1csc(Nc2cc(N3CCNCC3)ncn2)n1` [Compound 8c, N-Methyl-N-(2-phenoxyethyl)-2-((6-(piperazin-1-yl)pyrimidin-4-yl)amino)thiazole-4-carboxamide], in assay [1] (24 hours), the ERα level result is “significantly influenced”. Besides, in assay [1] (MCF-7, 50 μM, 24 hours), the Hsp70 levels entry is reported as “statistically insignificant decrease”; the “concentration of kinase clients Cdk4, c-Raf, IGF1R, and Akt” value is recorded as “decreased”. Besides, the “heat shock response (Hsp70 and Hsp90 levels)” value in assay [1] is recorded as “do not induce a heat shock response”. Besides, in assay [2], the Kd came to 70.8 µM.

In the case of `O=C(NCCOc1ccccc1)c1ccc(Nc2cc(N3CCNCC3)ncn2)cc1` [Compound 13g, N-(2-Phenoxyethyl)-4-((6-(piperazin-1-yl)pyrimidin-4-yl)amino)benzamide], the ERα level entry in assay [1] (24 hours) is “significantly influenced”. Besides, in assay [1] (MCF-7, 50 μM, 24 hours), the “concentration of kinase clients Cdk4, c-Raf, IGF1R, and Akt” value was “decreased”. In assay [1], the “heat shock response (Hsp70 and Hsp90 levels)” value was “do not induce a heat shock response”. Besides, the Kd in assay [2] is 73.3 µM.
